# In US11633473B2 (priority 2017, dated 2023):
# Columns and labels:
# adult C57BL/6 mice = format: in vivo; conditions: prime-boost i.m., rHA + adjuvant, Day 35 post-prime
# adult BMDCs = test: BMDC in vitro stimulation with PRR agonists/adjuvants, 20-24 h: cytokines by ELISA; format: cell-based, C57BL/6 mice; conditions: increasing concentrations
# Experimental: BMDCs were generated from newborn (5-7 days old) and adult (6-12 weeks old) C57BL/6 mice with an adaptation of previously described methods (Dowling et al., 2008, Lutz et al., 1999). Briefly, mice were sacrificed and legs removed; bones were surgically cleaned from surrounding tissue, extremities of tibiae and femurs were trimmed with sterile scissors and bone marrow flushed through a 70 μm nylon mesh strainer (Corning Life Sciences). Cell number and viability was determined by trypan blue exclusion. […] For flow cytometry analysis, BMDCs were stained (20 minutes at 4° C.) in PBS+FBS 2%+EDTA 2 mM, fixed with formaldehyde 4% (10 minutes at RT) and acquired on a BD LSRFortessa flow cytometer (BD Biosciences) or a Sony spectral analyzer SP6800 (Sony Biotechnology) and data were analyzed using FlowJo v.10 software (Tree Star). […]
# Rough (Salmonella Minnesota, R595) and smooth (Escherichia coli, O55:B5) lipopolysaccharide (LPS) were purchased from List Biological Laboratories. […] Cells were incubated at 37° C. for 20-24 hours, then supernatant harvested and TNF, IL-6, IL-1β and IL-12p70 concentrations were measured by ELISA (R&D Systems). IFNβ was measured with a bioluminescent ELISA kit (LumiKine, Invivogen). Alternatively, BMDCs were stained and analyzed by flow cytometry as indicated above. […]
# neonatal BMDCs = test: BMDC in vitro stimulation with PRR agonists/adjuvants, 20-24 h: cytokines by ELISA, maturation markers by flow cytometry; format: cell-based, C57BL/6 mice
# Experimental: Briefly, mice were sacrificed and legs removed; bones were surgically cleaned from surrounding tissue, extremities of tibiae and femurs were trimmed with sterile scissors and bone marrow flushed through a 70 μm nylon mesh strainer (Corning Life Sciences). Cell number and viability was determined by trypan blue exclusion. […] Plates were incubated in humidified atmosphere at 37° C., 5% CO2 for 6 days, with one supplement of 10 ml of complete culture medium and rmGM-CSF on day 3. On Day 6, non-adherent and loosely adherent cells were harvested by washing the plate gently with culture medium. Adherent cells were discarded. For flow cytometry analysis, BMDCs were stained (20 minutes at 4° C.) in PBS+FBS 2%+EDTA 2 mM, fixed with formaldehyde 4% (10 minutes at RT) and acquired on a BD LSRFortessa flow cytometer (BD Biosciences) or a Sony spectral analyzer SP6800 (Sony Biotechnology) and data were analyzed using FlowJo v.10 software (Tree Star). For a complete list of antibodies and fluorochromes used in the study see Table 2.
# Rough (Salmonella Minnesota, R595) and smooth (Escherichia coli, O55:B5) lipopolysaccharide (LPS) were purchased from List Biological Laboratories. […] All PRR agonists employed in the studies were chosen based on and verified endotoxin free as indicated by the manufacturers. For stimulation experiments, immature BMDCs generated from newborn and adult mice were plated in round bottom 96-wells non-tissue culture-treated plates at the density of 10^5 cells/well in 200 μl of fresh complete culture medium with rmGM-CSF as described above, with the appropriate stimuli at the concentrations indicated in Table 3. Cells were incubated at 37° C. for 20-24 hours, then supernatant harvested and TNF, IL-6, IL-1β and IL-12p70 concentrations were measured by ELISA (R&D Systems). IFNβ was measured with a bioluminescent ELISA kit (LumiKine, Invivogen). Alternatively, BMDCs were stained and analyzed by flow cytometry as indicated above.
# newborn mice = format: in vivo; conditions: single dose immunization, serum at DOL 35
# [1] = Quantification of 2′3′-cGAMP adsorption onto alum by RP-HPLC; conditions: for % Adsorbed to Alum: 1:10 cGAMP:alum mass ratio, saline
# Experimental: After vortexing for 10 seconds the sample was placed in a 37° C. incubator. Every 15 minutes the sample was vortexed for an additional 5 seconds and placed back into the incubator. […] Supernatant was immediately removed and placed into an autosampler vial undiluted for analysis by reverse-phase high performance liquid chromatography (RP-HPLC) to determine adsorption as a function of time. RP-HPLC samples were run on a Waters 2695 HPLC equipped with a 2996 photodiode array detector at a wavelength of 254 nm. A gradient was performed using a two mobile phase system of 0.1% trifluoroacetic acid in water and 0.1% trifluoroacetic acid in acetonitrile, on an Agilent Zorbax Eclipse Plus C18, 4.6×150 mm, 5 micron column at 25° C.
# newborn C57BL/6 mice = format: in vivo; conditions: prime-boost DOL 7 and 14, Day 35 post-prime (DOL 42)
compound,measurement,setting,value
"Nc1nc2c(ncn2[C@@H]2O[C@@H]3COP(=O)(O)O[C@H]4[C@@H](O)[C@H](n5cnc6c(N)ncnc65)O[C@@H]4COP(=O)(O)O[C@@H]2[C@@H]3O)c(=O)[nH]1 [cGAMP, cyclic guanosine monophosphate (GMP)-adenosine monophosphate (AMP)]",median anti-rHA IgG1 titers,adult C57BL/6 mice,0.77×10^6
same,median anti-rHA IgG2c titers,adult C57BL/6 mice,0.82×10^6
same,median anti-rHA IgG titers,adult C57BL/6 mice,increased anti-rHA IgG titers
same,IFNβ production,adult BMDCs,dose-dependent IFNβ production
same,"upregulation of surface maturation markers (CD40, CD80, CD86), neonatal vs adult BMDCs",neonatal BMDCs; 20-24 h stimulation,comparable
same,dependence of neonatal BMDC maturation marker expression on type I IFN signaling,"neonatal BMDCs; cGAMP 25 μg/ml, blocking anti-TNF and anti-IFNAR antibodies",type I interferon-dependent manner
same,"upregulation of surface maturation marker expression, cGAMP vs R848","neonatal BMDCs; neonatal and adult BMDCs, different concentrations",more effective than R848
same,IFNβ production,"neonatal BMDCs; newborn BMDCs, increasing concentrations",dose-dependent IFNβ production
same,median anti-rHA IgG1 titers,newborn mice,did not induce detectable
same,median anti-rHA IgG2c titers,newborn mice,did not induce detectable
same,median anti-rHA IgG titers,newborn mice,did not induce detectable
same,degradation products during incubation with alum,"[1]; 37° C., over 24 hours",No significant degradation products
same,"Peak Area of cGAMP in supernatant (RP-HPLC, 254 nm)","[1]; 15 min, 37° C.",22.53 mAU
same,% Adsorbed to Alum,"[1]; 15 min, 37° C.",63%
same,"Peak Area of cGAMP in supernatant (RP-HPLC, 254 nm)","[1]; 30 min, 37° C.",22.93 mAU
same,% Adsorbed to Alum,"[1]; 30 min, 37° C.",62.34%
same,"Peak Area of cGAMP in supernatant (RP-HPLC, 254 nm)","[1]; 1 hour, 37° C.",22.22 mAU
same,% Adsorbed to Alum,"[1]; 1 hour, 37° C.",63.51%
same,"Peak Area of cGAMP in supernatant (RP-HPLC, 254 nm)","[1]; 2 hours, 37° C.",20.83 mAU
same,% Adsorbed to Alum,"[1]; 2 hours, 37° C.",65.79%
same,"Peak Area of cGAMP in supernatant (RP-HPLC, 254 nm)","[1]; 4 hours, 37° C.",21.02 mAU
same,% Adsorbed to Alum,"[1]; 4 hours, 37° C.",65.48%
same,"Peak Area of cGAMP in supernatant (RP-HPLC, 254 nm)","[1]; 24 hours, 37° C.",15.02 mAU
same,% Adsorbed to Alum,"[1]; 24 hours, 37° C.",75.33%
same,cGAMP adsorbed onto alum in vitro,"[1]; summary statement in discussion, no time given",about 60%
same,median anti-rHA IgG1 titers,newborn C57BL/6 mice,24.51×10^3
same,median anti-rHA IgG2c titers,newborn C57BL/6 mice,0.23×10^3
same,median anti-rHA IgG titers,newborn C57BL/6 mice,20.57×10^3
"CCCCNc1nc(N)c2[nH]c(=O)n(Cc3ccc(C(=O)NCC(=O)O)cc3)c2n1 [CL264, reference compound]",IL-12p70 production by neonatal BMDCs,"neonatal BMDCs; most effective non-toxic concentration, 20-24 h",failed to produce IL-12p′70
